Read-outs that look alike come from different tables or passages of the source.
Tests used:
[1] = target: T1, GST/PTP-S31 fusion protein (S31D) (Homo sapiens, UniProt Q9UMZ3); assay: PTP assay of GST/PTP-S31D fusion protein on glutathione-Sepharose beads, substrate pNP-P, effect of agents; type: biochemical; conditions: 25 mM pNP-P
T1 construct: p16 encodes a fusion protein of glutathione-S-transferase and PTP-S31D (starting with the first methionine); made in house; host or cells: E. coli DH5α and SURE
T1 sequence (Q9UMZ3 with tags, fused parts or gaps): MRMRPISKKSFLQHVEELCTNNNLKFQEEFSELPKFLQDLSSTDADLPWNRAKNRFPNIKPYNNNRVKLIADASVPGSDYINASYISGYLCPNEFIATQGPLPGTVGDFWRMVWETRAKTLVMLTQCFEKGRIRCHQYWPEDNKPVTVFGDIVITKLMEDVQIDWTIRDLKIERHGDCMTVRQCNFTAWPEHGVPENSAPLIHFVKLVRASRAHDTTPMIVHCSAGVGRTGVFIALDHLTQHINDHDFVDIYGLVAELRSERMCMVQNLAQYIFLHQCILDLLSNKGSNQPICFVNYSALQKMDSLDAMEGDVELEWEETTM
Protocol: The activity of PTP-S31D towards the substrate p-nitrophenyl phosphate (pNP-P) was measured essentially as described by Tonks et al., J. Biol. Chem. 263:6731-6737 (1988)). Increasing amounts of the glutathione-Sepharose beads with GST/PTP-S31D, GST/PTP-S31C and GST, respectively, from above were incubated with 25 mM pNP-P at room temperature in a reaction mixture containing 50 mM 2-(N-morpholino) ethane sulfonic acid (MES) pH 5.5, 10 mM dithiothreitol, and 5 mM ethylenediamine tetraacetic acid (EDTA). The reaction was stopped by addition of equal volumes of 0.4 M NaOH. After centrifugation, the supernatants were transferred to microtiter plates and the absorbance at 405 nm was read with a Dynatech MR5000 reader.
The activity of the GST/PTP-S31D fusion protein towards pNP-P is measured as described in Section 10, above. The substances to be analyzed for their ability to stimulate or inhibit phosphatase activity are added to the GST/PTP-S31D fusion protein 5 minutes prior to the addition of pNP-P. A similar procedure is used for PTP-S31D expressed in 293 cells, where the PTP-S31D/293 cell lysate is used directly.
The indicated concentrations of the agents are the final concentrations in the reaction mixture after addition of the substrate, pNP-P. The phosphatase assay mixture contained 50 mM 2-(N-Morpholino)ethane sulfonic acid (MES) pH 5.5, 10 mM dithiothreitol, 25 mM pNP-P and 2 μl of the GST/PTP-S31-Sepharose suspension. When testing orthovanadate, poly(Glu/Tyr) 4:1 and poly-L-lysine, 5 mM EDTA was included in the assay mixture. The reaction was carried out at room temperature and stopped after 30 minutes by addition of equal volumes of 0.4M NaOH. After centrifugation, the supernatants were transferred to microtiter plates and the absorbance at 405 nm read with a Dynatech MR5000 plate reader. For comparison, Table I includes published data of the activity of PTPB and LAR using Raytide as a substrate (Itoh et al (J. Biol. Chem. 267: 12356-12363 (1992)).

[2] = system: LAR; conditions: Raytide substrate, cited from earlier work
[3] = target: PTPβ (Homo sapiens, UniProt P23467); conditions: Raytide substrate, cited from earlier work
PTPβ, sequence (P23467 1643-1997 limits assumed): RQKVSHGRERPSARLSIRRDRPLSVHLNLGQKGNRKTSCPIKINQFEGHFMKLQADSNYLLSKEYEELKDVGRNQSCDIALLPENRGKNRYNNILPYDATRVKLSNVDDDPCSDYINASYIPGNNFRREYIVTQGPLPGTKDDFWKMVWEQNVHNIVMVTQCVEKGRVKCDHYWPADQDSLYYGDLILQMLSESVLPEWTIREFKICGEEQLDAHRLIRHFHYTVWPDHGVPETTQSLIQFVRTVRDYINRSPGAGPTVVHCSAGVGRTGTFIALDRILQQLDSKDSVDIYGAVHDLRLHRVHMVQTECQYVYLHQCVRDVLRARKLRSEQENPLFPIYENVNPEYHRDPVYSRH

[4] = system: skeletal muscle or adipocytes; conditions: whole cells such as skeletal muscle or adipocytes; cited from earlier work
[5] = agent 1 mM final, MES pH 5.5, 30 min room temperature
[6] = agent 10 mM final, MES pH 5.5, 30 min room temperature
[7] = agent 1 μg/ml final, MES pH 5.5, 5 mM EDTA, 30 min room temperature
[8] = agent 10 μg/ml final, MES pH 5.5, 5 mM EDTA, 30 min room temperature
[9] = agent 100 μg/ml final, MES pH 5.5, 5 mM EDTA, 30 min room temperature
[10] = agent 0.1 mM final, MES pH 5.5, 30 min room temperature

[Cl-].[Cl-].[Mg+2] [MgCl2]
PTP Activity (% of control) S31D [1, 5]: 123 % of control | PTP Activity (% of control) S31D [1, 6]: 140 % of control | PTP Activity (% of control) LAR ([2]; agent 1 mM): 119 % of control | PTP Activity (% of control) LAR ([2]; agent 10 mM): 56 % of control | PTP Activity (% of control) PTPβ ([3]; agent 1 mM): 90 % of control | PTP Activity (% of control) PTPβ ([3]; agent 10 mM): 141 % of control

poly(Glu/Tyr) 4:1 [Poly (Glu/Tyr)]
PTP Activity (% of control) S31D [1, 7]: 84 % of control | PTP Activity (% of control) S31D [1, 8]: 85 % of control | PTP Activity (% of control) S31D [1, 9]: 77 % of control | PTP Activity (% of control) LAR ([2]; agent 1 μg/ml): 103 % of control | PTP Activity (% of control) LAR ([2]; agent 10 μg/ml): 97 % of control | PTP Activity (% of control) LAR ([2]; agent 100 μg/ml): 96 % of control | PTP Activity (% of control) PTPβ ([3]; agent 1 μg/ml): 97 % of control | PTP Activity (% of control) PTPβ ([3]; agent 10 μg/ml): 85 % of control | PTP Activity (% of control) PTPβ ([3]; agent 100 μg/ml): 61 % of control

[Cl][Mn][Cl] [MnCl2]
PTP Activity (% of control) S31D [1, 5]: 110 % of control | PTP Activity (% of control) S31D [1, 6]: 140 % of control | PTP Activity (% of control) LAR ([2]; agent 1 mM): 72 % of control | PTP Activity (% of control) LAR ([2]; agent 10 mM): 30 % of control | PTP Activity (% of control) PTPβ ([3]; agent 1 mM): 85 % of control | PTP Activity (% of control) PTPβ ([3]; agent 10 mM): 64 % of control

pervanadate
insulin response of whole cells [4]: almost full insulin response

poly-L-lysine
PTP Activity (% of control) S31D [1, 7]: 156 % of control | PTP Activity (% of control) S31D [1, 8]: 172 % of control | PTP Activity (% of control) S31D [1, 9]: 192 % of control | PTP Activity (% of control) LAR ([2]; agent 1 μg/ml): 123 % of control | PTP Activity (% of control) LAR ([2]; agent 10 μg/ml): 230 % of control | PTP Activity (% of control) LAR ([2]; agent 100 μg/ml): 247 % of control | PTP Activity (% of control) PTPβ ([3]; agent 1 μg/ml): 239 % of control | PTP Activity (% of control) PTPβ ([3]; agent 10 μg/ml): 653 % of control | PTP Activity (% of control) PTPβ ([3]; agent 100 μg/ml): 125 % of control

[O]=[V]([O-])([O-])[O-] [Orthovanadate, orthovanadate]
PTP Activity (% of control) S31D [1, 10]: 64 % of control | PTP Activity (% of control) S31D [1, 5]: 23 % of control | PTP Activity (% of control) LAR ([2]; agent 0.1 mM): 59 % of control | PTP Activity (% of control) LAR ([2]; agent 1 mM): 25 % of control | PTP Activity (% of control) PTPβ ([3]; agent 0.1 mM): 33 % of control | PTP Activity (% of control) PTPβ ([3]; agent 1 mM): 6 % of control

[Cl-].[Cl-].[Zn+2] [ZnCl2]
PTP Activity (% of control) S31D [1, 10]: 68 % of control | PTP Activity (% of control) S31D [1, 5]: 13 % of control | PTP Activity (% of control) S31D [1, 6]: 9 % of control | PTP Activity (% of control) LAR ([2]; agent 0.1 mM): 90 % of control | PTP Activity (% of control) LAR ([2]; agent 1 mM): 120 % of control | PTP Activity (% of control) LAR ([2]; agent 10 mM): 6 % of control | PTP Activity (% of control) PTPβ ([3]; agent 0.1 mM): 18 % of control | PTP Activity (% of control) PTPβ ([3]; agent 1 mM): 3 % of control | PTP Activity (% of control) PTPβ ([3]; agent 10 mM): 0 % of control
